Experimental data taken from US12195596B2, “Hyperbranched boric acid modified phthalonitrile monomer as well as preparation method and use thereof” (priority 2021, dated 2025).

Assay: Solubility of phthalonitrile monomers in common organic solvents
Format: physicochemical
Parameters: key: “+” represents “soluble”

Solubility (DMF)	Solubility (DMSO)	Solubility (NMP)	Solubility (THF)	Solubility (acetone)	SMILES
+	+	+	+	+	N#Cc1ccc(Oc2cccc(OB(Oc3cccc(Oc4ccc(C#N)c(C#N)c4)c3)Oc3cccc(Oc4ccc(C#N)c(C#N)c4)c3)c2)cc1C#N [Example 3]
+	+	+	+	+	N#Cc1ccc(Oc2cccc(OB(Oc3cccc(Oc4ccc(C#N)c(C#N)c4)c3)c3ccccc3)c2)cc1C#N [Example 4]
